Experimental data as given in paper PMC7478165, “Derivatisation of parthenolide to address chemoresistant chronic lymphocytic leukaemia” (MedChemComm, 2019).
Like-named read-outs stand apart in the source and are kept apart here.

Assays:
MEC1 CLL cell line [1] = assay: alamarBlue assay, in vitro antileukaemic activity against MEC1 CLL cell line; format: cell-based
Text: Defective p53-signalling increases genomic instability and drives tumour progression. A high frequency of p53 inactivation is found in relapsed, treatment-resistant, high risk CLL.[30] […] Owing to resource availability a subset of up to ten of these compounds was prioritised for further investigation. Compounds 2d, 2e, 2j, 2aa, 5a, 5d, 5e, 5f, 5ab and 6b were selected on the basis of reasons including ease of synthetic access, diversity across the chemical space probed and novelty. Those prepared under conditions (i)Scheme 1 (2d, 5a and 6b) were available on a scale and in a purity to directly permit follow-up studies, whereas compounds prepared under conditions (ii)Scheme 1 were prepared on a small scale so were resynthesised. These seven compounds (2e, 2j, 2aa, 5d, 5e, 5f and 5ab) were isolated on >30 mg scale in high purity and progressed to more following studies.
Following the identification of 5f as the most promising drug-like derivative of PTL from the aforementioned parallel/high-throughput screening, the anti-leukaemic activity of 5f was tested once more and compared directly with that of PTL (1) and DMAPT (2a), which serve as comparators and positive controls.
Amine 7 was successfully prepared as follows: 4-Piperidinecarboxylic acid was N-Boc protected to deliver 8 in 92% yield.[43] In order to confidently assign the NMR spectra of compound 8 J-MOD, HSQC and ^1H–^1H COSY were helpful, particularly in establishing that a broad resonance in the proton-decoupled ^13C NMR spectrum, centred on 42.8 ppm, corresponds to the ring-carbons bonded to nitrogen. The carboxylic acid of 8 was converted to the corresponding ethyl-3-keto-propanoate 9 in 24% yield. Conversion of 9 to the N-Boc protected congener 10, was achieved by treatment with acetamidine hydrochloride and potassium carbonate, furnishing 10 in 77% yield. Treatment with trifluoroacetic acid delivered desired compound 7 in 99% yield for the Boc-deprotection step (scale 200 mg, 17% over four linear steps). Thus, evidencing accessibility of amine 7 and with it in hand, it was timely to probe any activity arising from the amine alone. MEC1 sensitivity to 1, 5f and 7 was compared in parallel using the alamarBlue® assay (Fig. 6). […] A pre-peer-reviewed preprint of this article was deposited and may be viewed elsewhere.[44]

[2] = Stability in aqueous solution, pH 7.4; format: physicochemical; conditions: for half-life: pH 7.4, read-out: Stability pH 7.4 T1/2; for stability in aqueous solution: result in words
Protocol: Compounds 2d, 2e, 2f, 2g, 2j, 2aa, 5a, 5d, 5e, 5f, 5ab and 6b were subjected to in vitro DMPK testing. […] The other three (2d, 2j and 2aa) were not retained for further investigation due to poor stability (T1/2 at pH 7.4: 13, 107 and 76 min, Table 1, entries 1, 3 and 4 respectively). One obvious aspect contributing to observed stability is the propensity for PTL derivatives of this type to undergo a retro-amination (reverse-Michael-type mechanism), indeed this reverse reaction is often claimed as a pro-drug mode of action.[29a],[33] […] It is a reasonable assertion that activity observed for these unstable compounds could well be ascribed to free PTL generated rapidly in the assay.

[3] = Microsomal stability assay (mouse); conditions: for Mouse microsomal stability: mouse microsomes; for microsomal CLint: mouse, liver microsomes
[4] = Caco-2 permeability assay; format: in vitro ADME; conditions: human; for efflux ratio: Caco-2, pH 7.4
MEC1 CLL cell line [5] = assay: cells; parameters: alamarBlue (resazurin reduction) viability assay in MEC1 CLL cells; conditions: Homo sapiens, MEC1, 24 h; read-out: alamarBlue EC50 (uM) average
Text: Defective p53-signalling increases genomic instability and drives tumour progression. A high frequency of p53 inactivation is found in relapsed, treatment-resistant, high risk CLL.[30] […] Owing to resource availability a subset of up to ten of these compounds was prioritised for further investigation. Compounds 2d, 2e, 2j, 2aa, 5a, 5d, 5e, 5f, 5ab and 6b were selected on the basis of reasons including ease of synthetic access, diversity across the chemical space probed and novelty. Those prepared under conditions (i)Scheme 1 (2d, 5a and 6b) were available on a scale and in a purity to directly permit follow-up studies, whereas compounds prepared under conditions (ii)Scheme 1 were prepared on a small scale so were resynthesised. These seven compounds (2e, 2j, 2aa, 5d, 5e, 5f and 5ab) were isolated on >30 mg scale in high purity and progressed to more following studies. Biological efforts at Sygnature Discovery (where differing to University of Birmingham) MEC1 cells were obtained from the American Type Culture Collection (Manassas, VA 20110 USA) and were routinely cultured in RPMI 1640 medium (Sigma-Aldrich) supplemented with 1% L-glutamine (Sigma-Aldrich), 1% Penicillin/Streptomycin (Sigma-Aldrich) and 10% FBS (Gibco). The MEC1 proliferation assay was conducted by performing a re-feed of the MEC1 cells 24 h prior to cell seeding. On the day of the assay, cells were seeded into a 384-well assay plate at a density of 12,500 cells/well in 25 μL of complete MEC1 medium. Compound treatment was performed on the day of cell seeding, with compounds prepared as duplicate compound response curves (final DMSO concentration of 0.6%). Post compound treatment, MEC1 assay plates were returned to a 37 °C/5% CO2 incubator for 24 h of incubation. Following compound treatment, cellular viability was determined by measuring reduction of alamarBlue® reagent (Invitrogen). alamarBlue® reagent (2.5 μL) was added to each assay well to give a 1:10 dilution of the neat stock and assay plates were incubated for 3 h at 37 °C/5% CO2. Reduction of alamarBlue® was determined using an Envision Xcite plate reader (Perkin Elmer) with an excitation wavelength of 560 nm set and an emission wavelength of 590 nm set. Cell viability was determined by normalising raw fluorescent data to a cell only high control and Parthenolide treated low control to provide percentage viability readout. Data was plotted and EC50 values extracted and reported EC50s represent an average of at least two independent assays.

[6] = MEC1 cell line pEC50 minus calculated log P
[7] = MEC1 cell line, alamarBlue assay, library screen, read-out: EC50 ave.
[8] = first of two columns headed A to B
[9] = second of two columns headed A to B
[10] = Homo sapiens, MEC1, read-out: EC50 ave., MEC1 cell line, alamarBlue assay, library screen
[11] = Homo sapiens, MEC1, MEC1 cell line, alamarBlue assay, library screen, read-out: EC50 ave.

Cc1nc(O)cc(C2CCNCC2)n1 [Amine 7]
EC50 (MEC1 CLL cell line [1]; MEC1 cells, alamarBlue, 1, 5f and 7 compared in parallel, CalcuSyn): could not be determined

CCN(CCO)C[C@@H]1C(=O)O[C@H]2[C@H]1CC/C(C)=C/CC[C@@]1(C)O[C@H]21 [C00001]
LipE pEC50–clog P (MEC1 CLL cell line [1]; [6]): 3.31 | EC50 (MEC1 CLL cell line [1]; [7]): 4.7 µM | Stability pH 7.4 T1/2 [2]: 13 min

CCn1cc(CN(C[C@@H]2C(=O)O[C@H]3[C@H]2CC/C(C)=C/CC[C@@]2(C)O[C@H]32)C(C)C)cn1 [C00002]
Mouse microsomal stability [3, 8]: 828 | Mouse microsomal stability [3, 9]: 2 | LipE pEC50–clog P (MEC1 CLL cell line [1]; [6]): 1.61 | EC50 (MEC1 CLL cell line [1]; [7]): 5.6 µM | half-life [2]: > 2 h

COc1ccc(CN(C)C[C@@H]2C(=O)O[C@H]3[C@H]2CC/C(C)=C/CC[C@@]2(C)O[C@H]32)cc1OC [C00003]
LipE pEC50–clog P (MEC1 CLL cell line [1]; [6]): 1.48 | EC50 (MEC1 CLL cell line [1]; [7]): 5.6 µM | Stability pH 7.4 T1/2 [2]: 107 min

C/C1=C\CC[C@@]2(C)O[C@@H]2[C@H]2OC(=O)[C@@H](CN(C)CCc3ccccc3)[C@@H]2CC1 [C00004]
LipE pEC50–clog P (MEC1 CLL cell line [1]; [6]): 2.52 | EC50 (MEC1 CLL cell line [1]; [7]): 5.9 µM | Stability pH 7.4 T1/2 [2]: 76 min

C/C1=C\CC[C@@]2(C)O[C@@H]2[C@H]2OC(=O)[C@@H](CN3CCC(Oc4cccnc4)CC3)[C@@H]2CC1 [C00006]
Mouse microsomal stability [3, 8]: 251 | Mouse microsomal stability [3, 9]: 6 | LipE pEC50–clog P (MEC1 CLL cell line [1]; [6]): 2.48 | EC50 (MEC1 CLL cell line [1]; [7]): 5.4 µM | half-life [2]: > 2 h

C/C1=C\CC[C@@]2(C)O[C@@H]2[C@H]2OC(=O)[C@@H](CN3CCC(O)(c4ccccc4)CC3)[C@@H]2CC1 [C00007]
LipE pEC50–clog P (MEC1 CLL cell line [1]): 1.90 | EC50 (MEC1 CLL cell line [1]; [7]): 6 µM | half-life [2]: > 2 h

C/C1=C\CC[C@@]2(C)O[C@@H]2[C@H]2OC(=O)[C@@H](CN3CCC(OCc4cccnc4)CC3)[C@@H]2CC1 [C00009]
Mouse microsomal stability [3, 8]: 128 | Mouse microsomal stability [3, 9]: 11 | efflux ratio [4]: 0.8 | Papp A→B ([4]; Caco-2, pH 7.4, A to B): 10.9 ×10⁻⁶ cm/s | Papp B→A ([4]; Caco-2, pH 7.4, B to A): 9.1 ×10⁻⁶ cm/s | LipE pEC50–clog P (MEC1 CLL cell line [1]; [6]): 2.29 | EC50 (MEC1 CLL cell line [1]; [7]): 7.6 µM | half-life [2]: > 2 h

C/C1=C\CC[C@@]2(C)O[C@@H]2[C@H]2OC(=O)[C@@H](CN(C)CCc3ccccc3)[C@@H]2CC1 [Compound 2aa]
EC50 (MEC1 CLL cell line [1]; [7]): < 15 µM | half-life [2]: 1.27 h

CC1=CCCC2(C)OC2C2OC(=O)C(CN(C)CCO)C2CC1 (stereo not drawn) [Compound 2c]
EC50 (MEC1 CLL cell line [1]; [10]): < 15 µM

CCN(CCO)C[C@@H]1C(=O)O[C@H]2[C@H]1CC/C(C)=C/CC[C@@]1(C)O[C@H]21 [Compound 2d]
EC50 (MEC1 CLL cell line [1]; [7]): < 15 µM | half-life [2]: 0.217 h

CCn1cc(CN(C[C@@H]2C(=O)O[C@H]3[C@H]2CC/C(C)=C/CC[C@@]2(C)O[C@H]32)C(C)C)cn1 [Compound 2e]
microsomal CLint [3]: > 100 µL/min/mg | EC50 (MEC1 CLL cell line [1]; [7]): < 15 µM | stability in aqueous solution [2]: greater than two hours

C/C1=C\CC[C@@]2(C)O[C@@H]2[C@H]2OC(=O)[C@@H](CN(CC3CC3)C(C)C)[C@@H]2CC1 [Compound 2f]
EC50 (MEC1 CLL cell line [1]; [11]): < 15 µM | EC50 (MEC1 CLL cell line [5]): 12.2 µM

C/C1=C\CC[C@@]2(C)O[C@@H]2[C@H]2OC(=O)[C@@H](CN(CCO)C3CCCCC3)[C@@H]2CC1 [Compound 2g]
EC50 (MEC1 CLL cell line [1]; [11]): < 15 µM | EC50 (MEC1 CLL cell line [5]): 10 µM

COc1ccc(CN(C)C[C@@H]2C(=O)O[C@H]3[C@H]2CC/C(C)=C/CC[C@@]2(C)O[C@H]32)cc1OC [Compound 2j]
EC50 (MEC1 CLL cell line [1]; [7]): < 15 µM | half-life [2]: 1.78 h | EC50 (MEC1 CLL cell line [5]): 9.7 µM

CC1=CCCC2(C)OC2C2OC(=O)C(CSCCO)C2CC1 (stereo not drawn) [Compound 3]
activity against the MEC1 CLL cell line (MEC1 CLL cell line [1]; result in words): lack of activity

C/C1=C\CC[C@@]2(C)O[C@@H]2[C@H]2OC(=O)[C@@H](CN3CCC(OCc4cccnc4)CC3)[C@@H]2CC1 [Compound 5ab]
microsomal CLint [3]: > 100 µL/min/mg | EC50 (MEC1 CLL cell line [1]; [11]): < 15 µM | stability in aqueous solution [2]: greater than two hours

CC1=CCCC2(C)OC2C2OC(=O)C(CN3CCCCC3)C2CC1 (stereo not drawn) [Compound 5b]
EC50 (MEC1 CLL cell line [1]; [10]): < 15 µM | stability in aqueous solution [2]: greater than two hours

C/C1=C\CC[C@@]2(C)O[C@@H]2[C@H]2OC(=O)[C@@H](CN3CCC(Oc4cccnc4)CC3)[C@@H]2CC1 [Compound 5d]
microsomal CLint [3]: > 100 µL/min/mg | EC50 (MEC1 CLL cell line [1]; [7]): < 15 µM | stability in aqueous solution [2]: greater than two hours

C/C1=C\CC[C@@]2(C)O[C@@H]2[C@H]2OC(=O)[C@@H](CN3CCC(c4ccc(C(N)=O)cc4)CC3)[C@@H]2CC1 [Compound 5h]
EC50 (MEC1 CLL cell line [1]; [11]): < 15 µM | EC50 (MEC1 CLL cell line [5]): 13.8 µM

C/C1=C\CC[C@@]2(C)O[C@@H]2[C@H]2OC(=O)[C@@H](CN[C@@H](Cc3ccccc3)C(=O)O)[C@@H]2CC1 [Compound 6b]
microsomal CLint [3]: 9 µL/min/mg | efflux ratio [4]: 2.7 | EC50 (MEC1 CLL cell line [1]; [11]): < 15 µM | stability in aqueous solution [2]: greater than two hours

C=C1C(=O)O[C@@H]2[C@H]3O[C@]3(C)CC/C=C(\C)CC[C@@H]12 [PTL, parthenolide]
EC50 (MEC1 CLL cell line [1]; Homo sapiens, MEC1, MEC1 cells, alamarBlue, 1, 5f and 7 compared in parallel, CalcuSyn, read-out: EC50): 3.6 µM | EC50 (MEC1 CLL cell line [1]; Homo sapiens, MEC1, MEC1 cells, alamarBlue, direct comparison of 5f with PTL and DMAPT, n = 5, read-out: EC50): 6.2 µM
